From ChEMBL document CHEMBL1681785, “Structure-activity relationships of flavonoids as inhibitors of breast cancer resistance protein (BCRP)” (Bioorg Med Chem, 2011)
Active and inactive are the calls of the source. The rule behind the calls is not given here.

Key:
[1] = Inhibition of P-gp expressed in A2780adr cells by calcein AM accumulation assay; type: cell-based; conditions: A2780 ADR
[2] = target: Multidrug resistance-associated protein 1 (Homo sapiens, UniProt P33527); assay: Inhibition of MRP1 expressed in human 2008 cells assessed as calcein AM accumulation by cell based assay
Sequence of Multidrug resistance-associated protein 1 (P33527 whole entry): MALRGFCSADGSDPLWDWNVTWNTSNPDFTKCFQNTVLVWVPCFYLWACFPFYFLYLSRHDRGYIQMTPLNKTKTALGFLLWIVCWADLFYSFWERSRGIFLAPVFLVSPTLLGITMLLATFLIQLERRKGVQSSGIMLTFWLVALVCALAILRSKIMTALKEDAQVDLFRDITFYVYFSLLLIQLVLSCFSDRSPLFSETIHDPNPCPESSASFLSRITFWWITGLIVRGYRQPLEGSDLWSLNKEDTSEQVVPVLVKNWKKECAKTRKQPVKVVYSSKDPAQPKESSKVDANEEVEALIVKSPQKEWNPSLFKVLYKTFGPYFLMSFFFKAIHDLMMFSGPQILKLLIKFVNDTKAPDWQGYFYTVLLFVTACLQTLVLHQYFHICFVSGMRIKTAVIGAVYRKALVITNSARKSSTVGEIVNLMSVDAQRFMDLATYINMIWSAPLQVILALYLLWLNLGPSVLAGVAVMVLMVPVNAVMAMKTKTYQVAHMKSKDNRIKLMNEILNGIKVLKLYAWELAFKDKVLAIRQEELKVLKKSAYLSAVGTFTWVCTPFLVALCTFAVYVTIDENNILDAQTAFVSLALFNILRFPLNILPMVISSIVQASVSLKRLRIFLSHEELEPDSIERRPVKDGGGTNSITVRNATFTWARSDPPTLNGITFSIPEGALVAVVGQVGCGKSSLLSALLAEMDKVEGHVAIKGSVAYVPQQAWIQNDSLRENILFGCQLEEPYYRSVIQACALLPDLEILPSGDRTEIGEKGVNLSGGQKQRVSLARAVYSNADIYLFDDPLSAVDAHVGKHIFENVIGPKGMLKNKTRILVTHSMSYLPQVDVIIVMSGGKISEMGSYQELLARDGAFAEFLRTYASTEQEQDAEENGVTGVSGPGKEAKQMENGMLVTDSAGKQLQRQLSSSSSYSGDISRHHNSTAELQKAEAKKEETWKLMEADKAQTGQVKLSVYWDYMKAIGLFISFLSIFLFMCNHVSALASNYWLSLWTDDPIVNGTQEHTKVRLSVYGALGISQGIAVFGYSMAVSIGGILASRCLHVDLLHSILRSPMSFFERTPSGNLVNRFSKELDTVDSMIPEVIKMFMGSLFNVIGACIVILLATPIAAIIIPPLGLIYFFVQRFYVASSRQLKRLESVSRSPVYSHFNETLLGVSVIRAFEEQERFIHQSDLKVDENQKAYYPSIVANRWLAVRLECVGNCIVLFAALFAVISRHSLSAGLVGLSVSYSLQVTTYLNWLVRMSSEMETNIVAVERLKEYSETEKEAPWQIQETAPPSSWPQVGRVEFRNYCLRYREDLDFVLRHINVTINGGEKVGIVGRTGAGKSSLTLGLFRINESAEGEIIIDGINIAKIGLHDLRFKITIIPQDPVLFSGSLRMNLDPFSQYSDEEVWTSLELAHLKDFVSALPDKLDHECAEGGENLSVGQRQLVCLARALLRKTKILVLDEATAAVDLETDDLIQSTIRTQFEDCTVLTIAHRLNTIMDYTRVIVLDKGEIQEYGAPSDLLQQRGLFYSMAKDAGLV

[3] = target: T1, Broad substrate specificity ATP-binding cassette transporter ABCG2 (Homo sapiens, UniProt Q9UNQ0); assay: Inhibition of BCRP expressed in MDCK cells using Hoechst 33342 staining; type: cell-based; conditions: read-out: IC50
T1 sequence (Q9UNQ0 whole entry): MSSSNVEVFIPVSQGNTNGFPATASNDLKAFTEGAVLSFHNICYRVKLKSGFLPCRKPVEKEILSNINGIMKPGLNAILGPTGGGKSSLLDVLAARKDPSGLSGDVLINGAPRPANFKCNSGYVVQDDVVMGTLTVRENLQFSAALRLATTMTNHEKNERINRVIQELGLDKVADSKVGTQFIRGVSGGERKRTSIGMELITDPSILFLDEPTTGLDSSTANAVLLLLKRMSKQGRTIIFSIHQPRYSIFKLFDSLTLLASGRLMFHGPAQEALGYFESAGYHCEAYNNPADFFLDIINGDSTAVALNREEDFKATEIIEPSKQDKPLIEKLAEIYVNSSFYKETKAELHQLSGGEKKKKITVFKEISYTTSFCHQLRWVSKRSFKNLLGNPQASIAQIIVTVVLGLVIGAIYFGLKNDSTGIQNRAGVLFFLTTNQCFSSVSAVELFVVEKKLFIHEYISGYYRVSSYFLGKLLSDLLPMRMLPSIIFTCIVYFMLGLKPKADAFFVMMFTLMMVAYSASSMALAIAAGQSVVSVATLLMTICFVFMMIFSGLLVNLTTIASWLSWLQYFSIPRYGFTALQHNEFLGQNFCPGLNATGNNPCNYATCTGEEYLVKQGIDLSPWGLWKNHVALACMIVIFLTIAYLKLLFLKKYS

MCF7 = assay: Cytotoxicity against human MCF7 cells assessed as intracellular ATP level at 10 uM after 72 hrs by luminometry; type: functional, cell-based
A2780 ADR = assay: Inhibition of P-gp expressed in A2780adr cells at 10 uM by calcein AM accumulation assay relative to verapamil; type: cell-based
[4] = target: T1, Broad substrate specificity ATP-binding cassette transporter ABCG2; assay: Inhibition of BCRP expressed in MCF-7 MX cells using Hoechst 33342 staining; type: cell-based, MCF7; conditions: read-out: IC50
[5] = target: ATP-dependent translocase ABCB1 (Homo sapiens, UniProt P08183); assay: Inhibition of MDR1 expressed in MDCK cells using rhodamine 123 staining by flow cytometry; type: cell-based
Sequence of ATP-dependent translocase ABCB1 (P08183 whole entry): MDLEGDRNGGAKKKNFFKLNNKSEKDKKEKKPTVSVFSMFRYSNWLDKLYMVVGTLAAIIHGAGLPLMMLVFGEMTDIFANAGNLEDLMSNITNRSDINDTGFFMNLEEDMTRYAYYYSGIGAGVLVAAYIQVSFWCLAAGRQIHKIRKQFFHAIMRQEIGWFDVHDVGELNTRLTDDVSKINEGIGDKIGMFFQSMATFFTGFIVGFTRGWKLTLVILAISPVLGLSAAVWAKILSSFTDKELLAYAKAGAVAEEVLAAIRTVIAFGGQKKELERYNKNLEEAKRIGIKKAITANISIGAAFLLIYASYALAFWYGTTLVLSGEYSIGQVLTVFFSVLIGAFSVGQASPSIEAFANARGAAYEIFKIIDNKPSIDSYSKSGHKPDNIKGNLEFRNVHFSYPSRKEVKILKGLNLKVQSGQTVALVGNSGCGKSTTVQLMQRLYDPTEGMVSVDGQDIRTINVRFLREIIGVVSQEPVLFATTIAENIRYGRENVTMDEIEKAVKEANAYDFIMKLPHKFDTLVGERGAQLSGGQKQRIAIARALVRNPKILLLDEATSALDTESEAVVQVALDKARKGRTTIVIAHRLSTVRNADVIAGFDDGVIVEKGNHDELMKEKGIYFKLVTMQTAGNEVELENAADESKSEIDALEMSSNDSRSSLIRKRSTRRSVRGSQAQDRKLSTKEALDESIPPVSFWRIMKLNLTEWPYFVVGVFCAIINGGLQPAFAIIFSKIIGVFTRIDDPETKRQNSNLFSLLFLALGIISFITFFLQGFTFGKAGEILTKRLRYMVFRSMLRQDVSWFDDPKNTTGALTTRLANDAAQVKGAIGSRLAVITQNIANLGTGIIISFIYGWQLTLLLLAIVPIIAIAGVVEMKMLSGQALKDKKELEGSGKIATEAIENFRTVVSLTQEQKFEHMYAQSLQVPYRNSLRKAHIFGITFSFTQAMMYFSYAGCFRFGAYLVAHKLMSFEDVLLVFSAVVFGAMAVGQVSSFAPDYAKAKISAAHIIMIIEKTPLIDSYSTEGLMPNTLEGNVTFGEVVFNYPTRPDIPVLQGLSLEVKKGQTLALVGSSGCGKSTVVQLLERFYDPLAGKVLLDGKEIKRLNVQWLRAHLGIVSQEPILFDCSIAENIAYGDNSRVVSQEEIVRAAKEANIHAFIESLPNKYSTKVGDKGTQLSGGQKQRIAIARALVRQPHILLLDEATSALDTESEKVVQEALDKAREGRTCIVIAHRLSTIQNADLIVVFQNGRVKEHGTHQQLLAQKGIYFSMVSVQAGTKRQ

A2780 = assay: Cytotoxicity against human A2780 cells assessed as intracellular ATP level at 10 uM after 72 hrs by luminometry; type: functional, cell-based

| SMILES | IC50 [1] [µM] | IC50 [2] [µM] | IC50 [3] [µM] | Activity (MCF7) | inhibition (A2780 ADR) | IC50 [4] [µM] | IC50 [5] [µM] | Activity (A2780) |
| --- | --- | --- | --- | --- | --- | --- | --- | --- |
| COc1cc(O)c2c(=O)c(OC)c(-c3ccc(OC)c(O)c3)oc2c1 [AYANIN] | 9.4 | 50 | 0.46 | inactive | inactive | 0.68 | 13 | inactive |
| COc1ccc2c(c1)c(CC(=O)O)c(C)n2C(=O)c1ccc(Cl)cc1 [INDOMETHACIN] |  | 12.6 |  |  |  |  |  |  |
| COc1cc(O)c2c(=O)c(OC)c(-c3ccc(OC)c(OC)c3)oc2c1 [RETUSIN] | 12 | 50 | 0.39 | inactive | inactive | 0.9 | 16 | inactive |
